# Measured values: US6737425B1, “N,N-substituted cyclic amine derivatives” (Eisai Co., Ltd., priority 1998, dated 2004)
# Several values for one entry are separate records, joined by “and”; a condition that tells them apart may be missing. Equal entries are not always repeated.
# What was measured:
# [1] = system: rat model with occlusion in the middle cerebral artery; assay: Effect (I) of reducing infarct volume in a rat model with occlusion in the middle cerebral artery (2 hours occlusion); type: in vivo; conditions: for Infarct volume in the cerebral cortex, Mean: from 30 minutes after occlusion, 6 hours, 2 hours occlusion, 24 hours after occlusion; for reduction of infarct volume in the cerebral cortex: vs control group
# Method: Effect (I) of Reducing Infarct Volume in a Rat Model with Occlusion in the Middle Cerebral Artery
# The compound in Example 1 was selected as the typical example of the compound of the present invention, and this sample was dissolved in 5.28% mannitol to be adjusted to a dosage of 5 or 10 mg/kg/h just before use. The concentration of the sample was calculated on the basis of the average weight of animals, as shown in the following example. The average weight was determined by measuring the weights of all animals to be used in the experiment.
# For occlusion in the middle cerebral artery, an embolus prepared from nylon yarn of 4-0 monofilament (Ethicon, Inc., Somerville, N.J., USA) was used. The end of the nylon embolus was previously rounded with flame, and it was cut into fragments of 25 mm in length, and each fragment was marked at a position 17 mm apart from the end with an oil-based felt pen.
# Implantation of a catheter for intravenous administration (Atom venous catheter 3Fr, Atom Medical Co., Ltd., Tokyo) was conducted under anesthesia with 70% laughing gas-2% halothane. The catheter filled with physiological saline was inserted through the thigh vein in the left leg.
# Occlusion in the middle cerebral artery was conducted in accordance with the method of Longa et al. (12). Just after the catheter was implanted, the operation was conducted under anesthesia with 70% laughing gas-2% halothane. A rat was allowed to lie on the back and the cervical region was cut open under a stereoscopic microscope for operation, and the part where the common carotid artery at the right side branched into the external carotid artery and the internal carotid artery was confirmed. The external carotid artery was cut at the peripheral side, and the nylon embolus was inserted through the end of the cut external carotid artery into the internal carotid artery. The embolus was inserted until the position 17 mm apart from the end of the embolus reached the point where the external carotid artery was joined to the internal carotid artery, and the embolus was fixed. To initiate blood stream again, the nylon embolus was removed 2 hours after the middle cerebral artery was occluded. […]
# Twenty four hours after the middle cerebral artery was occluded, the head was cut off from the rat and the brain was taken out. […] The sample was left at room temperature for at least 1 hour in the TTC solution and then measured for the infarct area. […]
# [2] = system: rat model with occlusion in the middle cerebral artery; assay: Effect (II) of reducing infarct volume in a rat model with occlusion in the middle cerebral artery (permanent occlusion); type: in vivo; conditions: for Infarct volume in the cerebral cortex, Mean: from two hours after occlusion, 6 hours, 24 hours after occlusion
# Method: Effect (II) of Reducing Infarct volume in a Rat Model with Occlusion in the Middle Cerebral Artery
# The typical example of the compound of the present invention (the compound in Example 1) was compared with compounds disclosed in JP 8-508037-A (WO 94/25469, U.S. Pat. No. 5,750,525), which have affinity for AMPA receptors and is effective against cellular necrosis after ischemia in anoxia and hypocalcemia.
# The compound of the present invention was dissolved in physiological saline to be adjusted to a dosage of 10 or 20 mg/kg/h just before use.
# The control compound was dissolved in physiological saline to be adjusted to a dosage of 3 mg/kg/h just before use.
# Occlusion in the middle cerebral artery was conducted according to the method described above. However, the middle cerebral artery was permanently occluded without removing the nylon embolus.
# Two hours after the middle cerebral artery was occluded, a syringe containing the medium or the sample (10 or 20 mg/kg/h) was attached to a catheter for intravenous administration, and half (0.31 ml) of the dosage to be infused for 1 hour was intravenously administered for 1 minute. Thereafter, the medium or the sample was administered continuously for 6 hours at a rate of 0.616 ml/h by the use of a syringe pump for infusion. During administration and for 2 hours after administration was finished, the temperature of the rectum was maintained in the range of 37.0 to 38.5° C. in a system for controlling body temperature. After the body temperature control was finished, the animal was returned to a cage and maintained for 1 day in a breeding room.
# Two hours after the middle cerebral artery was occluded, a syringe containing the medium or the sample (3 mg/kg/h) was attached to a catheter for intravenous administration, and the medium or the sample was administered continuously for 6 hours at a rate of 0.616 ml/h by means of the syringe pump for infusion. During administration and for 2 hours after administration was finished, the temperature of the rectum was maintained in the range of 37.0 to 38.5° C. in the system for controlling body temperature. After the body temperature control was finished, the animal was returned to a cage and maintained for 1 day in a breeding room.
# The middle cerebral artery was permanently occluded by the nylon embolus, and the infarct volume was measured 24 hours after the occlusion was conducted.
# [3] = system: voltage-dependent calcium channels (cerebral cortex synaptosome); assay: Measurement of voltage-dependent calcium channel activity by the use of a fluorescent pigment (fura 2); type: cell-based; conditions: rat cerebral cortex synaptosome, fura 2, KCl stimulation, compound incubated 10 minutes
# Summary of the method: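 Synaptosomes were prepared from rat cerebral cortex by sucrose homogenisation and 0.8 M sucrose gradient centrifugation. They were loaded with fura-2/AM by mixing with an equal volume of 4 μM loading solution for 40 min at room temperature. Verapamil hydrochloride served as the reference compound.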
# [4] = 10 mg/kg/h i.v. (table: 10 mg/kg)
smiles,measurement,setting,value
"CC(C)C(C#N)(CCCN1CCN(CCOc2ccc(F)cc2)CC1)c1ccccc1 (stereo not drawn) [Example 1, 1-[(4-Cyano-5-methyl-4-phenyl)hexyl]-4-[2-(4-fluorophenoxy)ethyl]piperazine]","Infarct volume in the cerebral cortex, Mean",[1]; 5 mg/kg/h i.v. (table: 5 mg/kg),162.2±16.3 mm^3 and 162.17 mm^3
same,reduction of infarct volume in the cerebral cortex,[1]; 5 mg/kg/h i.v.,28%
same,"Infarct volume in the cerebral cortex, Mean",[1]; [4],135.5±26.2 mm^3 and 135.50 mm^3
same,reduction of infarct volume in the cerebral cortex,[1]; 10 mg/kg/h i.v.,40%
same,degree of reduction of the infarct volume,[2]; 10 mg/kg/h i.v.,15%
same,"Infarct volume in the cerebral cortex, Mean",[2]; [4],260.7±13.1 mm^3 and 260.7 mm^3
same,degree of reduction of the infarct volume,[2]; 20 mg/kg/h i.v.,30%
same,"Infarct volume in the cerebral cortex, Mean",[2]; 20 mg/kg/h i.v. (table: 20 mg/kg),215.4±21.3 mm^3 and 215.4 mm^3
same,IC50,[3],5.9 µM
